Literature values in patent US9221758B2, “Methods of synthesizing pharmaceutical salts of a factor Xa inhibitor” (Millennium Pharmaceuticals, Inc., priority 2006, dated 2015).
Read-outs that look alike come from different tables or passages of the source.

Key:
[1] = statement in words, information in US2007/0112039
Factor Xa = Factor Xa (Homo sapiens, UniProt P00742); conditions: statement in words, as discussed in U.S. Pat. No. 6,376,515
Factor Xa, sequence (P00742 235-488 limits assumed): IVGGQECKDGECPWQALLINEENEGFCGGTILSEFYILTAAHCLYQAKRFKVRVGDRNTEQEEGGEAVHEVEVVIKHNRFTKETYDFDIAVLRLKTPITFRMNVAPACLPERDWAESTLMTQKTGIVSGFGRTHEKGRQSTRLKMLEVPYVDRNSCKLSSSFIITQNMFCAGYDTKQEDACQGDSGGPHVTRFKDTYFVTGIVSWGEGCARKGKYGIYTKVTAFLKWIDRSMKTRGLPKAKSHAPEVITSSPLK
Factor Xa, sequence (P00742 41-179 partner limits assumed): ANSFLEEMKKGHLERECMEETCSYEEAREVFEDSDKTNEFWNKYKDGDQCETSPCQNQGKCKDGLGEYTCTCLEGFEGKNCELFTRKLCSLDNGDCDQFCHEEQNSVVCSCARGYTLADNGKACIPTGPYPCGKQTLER

Row | thermal and hydrolytic stability [1] | Xa inhibitor potency (Factor Xa) | Compound | thermal and hydrolytic stability ([1]; listed as maleate salt)
1 | excellent | – | COc1ccc(NC(=O)c2ccc(C(=N)N(C)C)cc2)c(C(=O)Nc2ccc(Cl)cn2)c1 | best thermal and hydrolytic stability observed
2 | – | potent Xa inhibitor | COc1ccc(NC(=O)c2ccc(C(=N)N(C)C)cc2)c(C(=O)Nc2ccc(Cl)cn2)c1 [compound of Formula I] | –
